Measured values: ChEMBL document CHEMBL1201862, “PubChem BioAssay data set” (2004)
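All cell lines were grown in 96-well plates and treated with compound for 48 hours. Abbreviation: GI50, concentration required for 50% inhibition of growth.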 Activity calls are given as the source filed them. Cut-off read from the data, not from the text of the source: active = GI50 up to about 1.1 µM and inactive = higher.

Tests used:
Assay in all cases: NCI tumour cell line growth inhibition, 48 h
[1] = test system: 786-0
[2] = test system: A498
[3] = test system: A549
[4] = test system: ACHN
[5] = test system: DU-145
[6] = test system: EKVX
[7] = test system: HCC 2998
[8] = test system: HCT-116
[9] = test system: HL-60
[10] = test system: K562
[11] = test system: KM12
[12] = test system: M14
[13] = test system: Malme-3M
[14] = test system: NCI-H226
[15] = test system: NCI/ADR-RES
[16] = test system: OVCAR-4
[17] = test system: RPMI-8226
[18] = test system: SF-268
[19] = test system: SNB-75
[20] = test system: UACC-62

Row | Structure (SMILES) | GI50 [1] | GI50 [2] | GI50 [3] | GI50 [4] | GI50 [5] | GI50 [6] | GI50 [7] | GI50 [8] | GI50 [9] | GI50 [10] | GI50 [11] | GI50 [12] | GI50 [13] | GI50 [14] | GI50 [15] | GI50 [16] | GI50 [17] | GI50 [18] | GI50 [19] | GI50 [20]
1 | CC(=O)Oc1ccc2c(C)cc(=O)oc2c1 | > 100 µM (inactive) | > 100 µM (inactive) | > 100 µM (inactive) | > 100 µM (inactive) | > 100 µM (inactive) | > 100 µM (inactive) | > 100 µM (inactive) | > 100 µM (inactive) | > 100 µM (inactive) | > 100 µM (inactive) | > 100 µM (inactive) | > 100 µM (inactive) | > 100 µM (inactive) | > 100 µM (inactive) | > 100 µM (inactive) | > 100 µM (inactive) | > 100 µM (inactive) | > 100 µM (inactive) | > 100 µM (inactive) | > 100 µM (inactive)
2 | N=C(N)SCc1ccc(Cl)c2ccccc12.O=[N+]([O-])c1ccc(O)c([N+](=O)[O-])c1 | 12.4 µM (inactive) | 9.4 µM (inactive) | 16.9 µM (inactive) | 12.9 µM (inactive) | 12.9 µM (inactive) | 10.3 µM (inactive) | 2.04 µM (inactive) | 13.4 µM (inactive) | 2.82 µM (inactive) | 0.421 µM (active) | 12.3 µM (inactive) | 13 µM (inactive) | 10 µM (inactive) | 12.4 µM (inactive) | 16.7 µM (inactive) | 10.9 µM (inactive) | 1.32 µM (inactive) | 15.4 µM (inactive) | 4.56 µM (inactive) | 12.5 µM (inactive)
3 | CCC(C)(C)c1ccc(Oc2cccc(C(=O)O)c2)cc1 | 89.3 µM (inactive) | 53.8 µM (inactive) | 38.2 µM (inactive) | 58.9 µM (inactive) | 97.1 µM (inactive) | 40.4 µM (inactive) | 93.3 µM (inactive) | 41.5 µM (inactive) | 40.1 µM (inactive) | 32.6 µM (inactive) | 47.1 µM (inactive) | 52.8 µM (inactive) | 44.6 µM (inactive) | 39.9 µM (inactive) | 50.1 µM (inactive) | 44.3 µM (inactive) | 28.8 µM (inactive) | 46.8 µM (inactive) | 37.9 µM (inactive) | 34.6 µM (inactive)
4 | O=[N+]([O-])C1=Cc2cc(Cl)ccc2OC1c1cccc2ccccc12 (stereo not given) | 0.396 µM (active) | 1.86 µM (inactive) | 1.7 µM (inactive) | 1.52 µM (inactive) | 1.91 µM (inactive) | 1.27 µM (inactive) | 0.984 µM (active) | 0.187 µM (active) | 3.83 µM (inactive) | 0.371 µM (active) | 1.79 µM (inactive) | 1.23 µM (inactive) | 1.57 µM (inactive) | 1.62 µM (inactive) | 2.07 µM (inactive) | 1.57 µM (inactive) | 0.317 µM (active) | 1.26 µM (inactive) | 0.6 µM (active) | 1.57 µM (inactive)
5 | CC1=CCC([C@@](C)(O)CCCC(C)(C)N=C=S)CC1 (stereo not given in full) | 17.7 µM (inactive) | 15.3 µM (inactive) | 17.6 µM (inactive) | 16.8 µM (inactive) | 16.4 µM (inactive) | 17 µM (inactive) | 18.2 µM (inactive) | 13.7 µM (inactive) | 21.8 µM (inactive) | 19.3 µM (inactive) | 15.5 µM (inactive) | 17.1 µM (inactive) | 14.8 µM (inactive) | 17.2 µM (inactive) | 19.6 µM (inactive) | 16.5 µM (inactive) | 25.7 µM (inactive) | 16.8 µM (inactive) | 17.8 µM (inactive) | 16.9 µM (inactive)
